These results are taken from patent US6806285B1, “5-Hydroxyl indole derivatives for treating glaucoma” (Alcon, Inc., priority 2000, dated 2004).

The test system of data set [1] is hypertensive cynomolgus monkeys. The settings on record: dose 250 μg, cited from earlier work.
A short description of data set [2]: Solution stability, accelerated stress test. The settings on record: 14 days; for Predicted Shelf Life: 25° C., loss of 10% compound (T90), extrapolated from 75° C., pH 5 0.025 M sodium citrate buffer, HPLC. In kind it is physicochemical. The method, then:
The solution stability of the example compounds were assessed using an accelerated stress test. The compound was dissolved in pH 5, 0.025 M sodium citrate buffer (5˜15 μg/mL). In duplicate, 2 mL of each solution in a glass vial was heated at 75° C. for 14 days. Samples were analyzed periodically using HPLC and % degradation was calculated for the sample. The predicted shelf life (25° C.) was based on the loss of 10% compound (T90) and the fact that the rate of degradation for a first order reaction decreased 50% for every 10° C. drop in temperature.

On to `CC(N)Cc1c[nH]c2ccc(O)cc12` (stereo not drawn) [α-methylserotonin, 3-(2-aminopropyl)-1H-indol-5-ol], for which, in data set [1], the “Percent IOP Reduction ± SEM, 1 hour after dose” value is on record as 14.2 ± 4.39%; the “Percent IOP Reduction ± SEM, 3 hours after dose” value is on record as 25.8 ± 5.16%; the “Percent IOP Reduction ± SEM, 6 hours after dose” value was 30.8 ± 7.72%. Moreover, in data set [2], the “Predicted Shelf Life” value is 2.6 months.
On to `NCCc1c[nH]c2ccc(O)cc12` [Serotonin], for which, in data set [1], the “Percent IOP Reduction ± SEM, 1 hour after dose” value is 13.3 ± 5.31%; the “Percent IOP Reduction ± SEM, 3 hours after dose” value is 18.0 ± 5.12%; the “Percent IOP Reduction ± SEM, 6 hours after dose” value is reported as 2.0 ± 7.39%.
As to `CC(N)Cc1c[nH]c2ccc(OC(=O)C(C)C)cc12` (stereo not drawn) [Example 2, Isobutyric acid 3-(2-aminopropyl)-1H-indol-5yl ester], the “Predicted Shelf Life” value in data set [2] is reported as 3.36 months.
Still for that read-out and setting: the same measure for `CC(N)Cc1c[nH]c2ccc(OC(=O)C(C)(C)C)cc12` (stereo not drawn) [Example 3, 2,2-Dimethyl-propionic acid 3-(2-aminopropyl)-1H-indol-5yl ester]: 11.3 months; for `CC(N)Cc1c[nH]c2ccc(OC(=O)C3CC3)cc12` (stereo not drawn) [Example 4, Cyclopropanecarboxylic acid 3-(2-aminopropyl)-1H-indol-5yl ester]: 5.81 months.
As for `CCC(=O)Oc1ccc2[nH]cc(CC(C)N)c2c1` (stereo not drawn) [Example 1, Propionic acid 3-(2-aminopropyl)1H-indol-5-yl ester], the “Predicted Shelf Life” value in data set [2] is 1.32 months. Moreover, the “Stability relative to the parent compound α-methylserotonin (oxidative degradation and ester hydrolysis)” value in data set [2] (stress conditions: pH 5 citrate buffer, 75° C.) is given as “did not provide an increase in the stability of the parent compound”.
